Earlier results on 1 compound are cited in US11564958B2, “Compositions and methods of treatment of Ehlers-Danlos syndromes” (RESOLYS BIO, INC., priority 2017, dated 2023).

The data set has as its system rheumatoid arthritis. To be noted: reported in U.S. Pat. No. 4,704,273.

SMILES strings stand for the structures.

Take `NCCc1c[nH]cn1` [histamine, 4-(2-aminoethyl)-imidazole]: the “usefulness in alleviating symptoms of rheumatoid arthritis” value was “not be useful”.
